Like-named read-outs stand apart in the source and are kept apart here.
Columns and labels:
[1] = in vivo; conditions: rat, po
Text: (§1) A therapeutic index is an indication of the therapeutic usefulness of a compound, and such an index may be defined in various ways. One type of therapeutic index commonly used is the ratio LD50/ED50, wherein LD50 is the dose that causes a 50 percent lethality, and ED50 is the dose that causes a 50 percent reduction of tumour size. Another type of therapeutic index, useful in evaluation of increasing survival time, is the ratio between maximum and minimum effective dose. Both these types of therapeutic indexes are used and given in the experimental results below.
(§2) The manner of administration of the compounds is by the oral (p. o.) route in each case.
(§3) Experimental animals: Female Sprague Dawley rats
(§4) Tumour implants: Tumour pieces with 2-3 mm diameter, implanted subcutaneously
(§5) Therapy: The compound is administered p. o. once on the day after the implantation
(§6) Evaluation: Weight of tumour is determined in test animals and compared with those of control animals. For each compound the LD50 and ED50 dose (as defined above) are determined. The therapeutic index, T. I., (LD50/ED50) is calculated.

[2] = test system: Lymphatic leukemia L1210; test: Lymphatic leukemia L1210 survival test (survival time increase, long term survival, cure potential); format: in vivo, Female BDF1 mice; conditions: for minimal effective dose: Mus musculus, L1210, po; for T.I.s (long term survival; max.effect.dose/min.effect.dose): long term survival T·100/To >20%; for T.I.s = max.effect.dose/min.effect.dose: survival time increase, t·100/c ≥125%; for Dose or dose range for cure: ≥90% long term survivors on day 60; for median survival time percent of control: dose of 125 mg/kg, p.o., called significant activity
Method: The experimental design and interpretation of the results are in accordance with the standards set by the CCNSC (see reference (16)) and by the DR&D (see reference (17)).
Experimental animals: Female BDF1 mice
Tumour implants: 10^5 tumour cells implanted intraperitoneally (i. p.)
Therapy: The compounds were administered p. o. once on the day following the implantation.
Termination: The animals were killed on the 60th day after the implantation. Living animals on the 60th day are termed long term survivors.
(a) Evaluation of therapeutic dose range for survival time increase: Survival times at various dose levels are determined, and the survival time of the test animals (t) is expressed as the percentage of that of the control animals (c):
The maximum effective dose and the minimum effective dose required to achieve t·100/c≥125% are determined, and a therapeutic index as defined below is calculated:
T. I.s =max.effect.dose/min.effect.dose.
(b) Evaluation of therapeutic dose range for long term survival: Long time survival is determined at various dose levels and is expressed as surviving test animals on day 60 (T) as the percentage of that of the total number of test animals (To):
The maximum effective dose and the minimum effective dose to achieve long term survival T·100/To >20% are determined and a therapeutic index, T. I.1 s is calculated:
T. I.1s =max.effect.dose/min.effect.dose.
(c) Evaluation of cure potential: The normal survival time for test animals receiving no therapeutic treatment is 9-11 days. Surviving test animals on the 60th day after implantation showing no sign of tumour presence are regarded as cured animals. Long term survival is determined as under (b) above, and the effective dose or dose range to achieve a long term survival T·100/To ≥90% is determined as an evaluation of the cure potential.

[3] = test system: Walker carcinosarcoma 256; test: Walker carcinosarcoma 256 tumour growth inhibition (single p.o. dose); format: in vivo, Female Sprague Dawley rats; conditions: for ED50: Rattus norvegicus, po; for T.I. LD50/ED50: therapeutic index LD50/ED50; for T.I. LD50/ED50 / activity in the foregoing test (Walker carcinosarcoma 256): p.o.; for activity in the foregoing test (Walker carcinosarcoma 256): dose of 8 mg/kg, preliminary experiments
Text: as §1, §2, §3, §4, §5
Termination: The animals are killed on the 9th day after implantation
as §6

[4] = 1440 h, >20% long term survivors on day 60, p.o. once, read-out: Minimum effective dose (long term survival)
[5] = median survival time percent of control ≥ 125%, p.o. once, read-out: Minimum effective dose (survival time increase)
[6] = median survival time percent of control ≥ 125%, p.o. once
[7] = dose that causes a 50 percent reduction of tumour size, p.o. once, read-out: ED50
[8] = >20% long term survivors on day 60, p.o. once

SMILES | minimal effective dose [2, 4] [mg/kg] | minimal effective dose [2, 5] [mg/kg] | T.I.s (long term survival; max.effect.dose/min.effect.dose) [2] | Maximum effective dose (survival time increase) [2, 6] [mg/kg] | T.I.s = max.effect.dose/min.effect.dose [2] | Dose or dose range for cure ([2]; p.o. once) [mg/kg] | other results
CN(C)S(=O)(=O)CCNC(=O)N(CCCl)N=O [1:1, 1-(2-chloroethyl)-3-/2-(dimethylaminosulfonyl)ethyl/-1-nitrosourea] | 31 | 8 | 2 | 63 | 8 | 31 to 63 | LD50 [1]: 50 mg/kg; ED50 [3, 7]: 0.25 mg/kg; T.I. LD50/ED50 [3]: 200
CCN(CC)S(=O)(=O)CCNC(=O)N(CCCl)N=O [1:2, 1-(2-chloroethyl)-3-(2-/diethylaminosulfonyl/ethyl)-1-nitrosourea] | 63 | 16 | 2 | 125 | 8 | – | LD50 [1]: 60 mg/kg; ED50 [3, 7]: 0.4 mg/kg; T.I. LD50/ED50 [3]: 150
NS(=O)(=O)CCNC(=O)N(CCCl)N=O [1:3, 3-(2-/aminosulfonyl/ethyl)-1-(2-chloroethyl)-1-nitrosourea] | 16 | – | 2 | – | – | – | LD50 [1]: 40 mg/kg; ED50 [3, 7]: 0.2 mg/kg; T.I. LD50/ED50 [3]: 200
COCCNS(=O)(=O)CCNC(=O)N(CCCl)N=O [1:8, 1-(2-chloroethyl)-3-(2-/2-methoxyethylaminosulfonyl/ethyl)-1-nitrosourea] | 31 | – | 2 | – | – | 31 to 63 | –
CCCCNS(=O)(=O)CCNC(=O)N(CCCl)N=O [1:9, 3-(2-/butylaminosulfonyl/ethyl)-1-(2-chloroethyl)-1-nitrosourea] | 63 | 16 | 2 | 125 | 8 | 63 | –
CC(C)(C)NS(=O)(=O)CCNC(=O)N(CCCl)N=O [1:10, 3-(2-/t-butylaminosulfonyl/ethyl)-1-(2-chloroethyl)-1-nitrosourea] | – | – | – | – | – | – | median survival time percent of control [2]: ≥ 125%
O=NN(CCCl)C(=O)NCCS(=O)(=O)NC1CCCCC1 [1:11, 1-(2-chloroethyl)-3-(2-/cyclohexylaminosulfonyl/ethyl)-1-nitrosourea] | 63 | 31 | 2 | 250 | 8 | 125 | –
O=NN(CCCl)C(=O)NCCS(=O)(=O)N(CCO)CCO [1:12, 3-(2-/bis(2-hydroxyethyl)aminosulfonyl/ethyl)-1-(2-chloroethyl)-1-nitrosourea] | – | – | – | – | – | 125 | –
CCCCC(C)NS(=O)(=O)CCNC(=O)N(CCCl)N=O (stereo not drawn) [1:13, 1-(2-chloroethyl)-3-(2-/1-methylpentylaminosulfonyl/ethyl)-1nitrosourea] | – | – | – | – | – | – | median survival time percent of control [2]: ≥ 125%
CC(C)(CO)NS(=O)(=O)CCNC(=O)N(CCCl)N=O [1:16, 1-(2-chloroethyl)-3-(2-/1,1-dimethyl-2-hydroxyethylaminosulfonyl/ethyl)-1-nitrosourea] | – | – | – | – | – | 250 | –
CN(Cc1ccccc1)S(=O)(=O)CCNC(=O)N(CCCl)N=O [1:17, 3-(2-/N-benzyl-N-methylaminosulfonyl/ethyl)-1-(2-chloroethyl)-1-nitrosourea] | 125 | 63 | 2 | 500 | 8 | – | –
CN(c1ccccc1)S(=O)(=O)CCNC(=O)N(CCCl)N=O [1:18, 1-(2-chloroethyl)-3-(2-/N-methyl-N-phenylaminosulfonyl/ethyl)-1-nitrosourea] | – | – | – | – | – | – | median survival time percent of control [2]: ≥ 125%
CON(C)S(=O)(=O)CCNC(=O)N(CCCl)N=O [1:20, 1-(2-chloroethyl)-3-(2-/N-methoxy-N-methylaminosulfonyl/ethyl)-1-nitrosourea] | 63 | 16 | 2 | 125 | 8 | 63 to 125 | –
CN(C)S(=O)(=O)CCCNC(=O)N(CCCl)N=O [1:21, 1-(2-chloroethyl)-3-(3-/dimethylaminosulfonyl/propyl)-1-nitrosourea] | 31 | 8 | 2 | 63 | 8 | 31 to 63 | –
CN(C)S(=O)(=O)CCNS(=O)(=O)CCNC(=O)N(CCCl)N=O [1:23, 1-(2-chloroethyl)-3-(2-/2-(dimethylaminosulfonyl)ethylaminosulfonyl/ethyl)-1-nitrosourea] | 63 | – | 2 | – | – | 125 | –
COCCN(CCS(=O)(=O)N(C)C)C(=O)N(CCCl)N=O [1:48, 1-(2-chloroethyl)-3-(2-methoxyethyl)-3-/2-(dimethylaminosulfonyl)ethyl/-1-nitrosourea] | – | – | – | – | – | – | activity in the foregoing test (Walker carcinosarcoma 256) [3]: significant activity
CCN(C)S(=O)(=O)CCNC(=O)N(CCCl)N=O [1:52, 1-(2-chloroethyl)-3-(2-/N-ethyl-N-methylaminosulfonyl/ethyl)-1-nitrosourea] | 31 | – | 2 | – | – | – | activity in the foregoing test (Walker carcinosarcoma 256) [3]: significant activity
CCCN(CC)S(=O)(=O)CCNC(=O)N(CCCl)N=O [1:53, 1-(2-chloroethyl)-3-(2-/N-ethyl-N-propylaminosulfonyl/ethyl)-1-nitrosourea] | 125 | 31 | 2 | 500 | 16 | 125 to 150 | ED50 [3, 7]: 1.7 mg/kg
CCN(CCS(=O)(=O)N(C)C)C(=O)N(CCCl)N=O [1:54, 1-(2-chloroethyl)-3-(2-/dimethylaminosulfonyl/ethyl)-3-ethyl-1-nitrosourea] | – | – | – | – | – | – | median survival time percent of control [2]: ≥ 125%; activity in the foregoing test (Walker carcinosarcoma 256) [3]: significant activity
O=NN(CCCl)C(=O)NC1CCCCC1 [CCNU, 1-(2-chloroethyl)-3-cyclohexyl-1-nitrosourea, reference compound] | – | – | – | – | – | – | LD50 [1]: 90 mg/kg; ED50 [3, 7]: 1 mg/kg; T.I. LD50/ED50 [3]: 90
O=P1(N(CCCl)CCCl)NCCCO1 (stereo not drawn) [Cyclophosphamide, reference compound] | – | – | – | – | – | – | LD50 [1]: 180 mg/kg; ED50 [3]: 6 mg/kg; T.I. LD50/ED50 [3]: 30
CC1CCC(NC(=O)N(CCCl)N=O)CC1 (stereo not drawn) [Methyl-CCNU, 1-(2-chloroethyl)-3-(4-methyl-cyclohexyl)-1-nitrosourea, reference compound] | – | 8 | none | 31 | 4 | – | Maximum effective dose (long term survival) [2, 8]: none; Minimum effective dose (long term survival) [2, 8]: none
